Target: T1, cloned human CRTH2 receptor (Homo sapiens, UniProt Q9Y5Y4)
T1 construct: purchased Biosignal; host or cells: HEK-293 cells stably expressing human CRTH2 and G-alpha-16 (membranes)
T1 sequence (Q9Y5Y4 1-395): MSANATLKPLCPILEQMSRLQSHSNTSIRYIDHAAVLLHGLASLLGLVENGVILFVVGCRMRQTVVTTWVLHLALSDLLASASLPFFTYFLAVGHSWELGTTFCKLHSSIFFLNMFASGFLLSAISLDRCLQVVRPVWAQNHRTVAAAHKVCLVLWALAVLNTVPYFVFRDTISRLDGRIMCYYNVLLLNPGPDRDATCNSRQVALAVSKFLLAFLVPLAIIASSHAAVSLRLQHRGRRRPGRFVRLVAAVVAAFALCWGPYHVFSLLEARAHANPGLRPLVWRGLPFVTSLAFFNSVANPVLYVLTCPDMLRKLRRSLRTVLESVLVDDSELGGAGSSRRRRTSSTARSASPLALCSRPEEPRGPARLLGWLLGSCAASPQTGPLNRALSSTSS
Test: Radioligand membrane binding assay: inhibition of [3H] PGD2 binding to CRTH2 (Scintillation Proximity Assay)
Conditions: inhibition of [3H] PGD2 binding to membranes of HEK-293 cells stably expressing human CRTH2; SPA; 10 point curve from 10 μM; room temperature, approximately 2 hours
In short: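 Scintillation proximity binding of [3H] PGD2 (at KD or lower) to membranes of HEK-293 cells stably expressing human CRTH2, in 50 mM Tris-HCl pH 7.5, 5 mM MgCl2, 1 mM EDTA. Ten-point 3-fold series from 10 μM final, ~2 h at room temperature; cold PGD2 defines NSB; percent inhibition, duplicate runs (n=2).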

**Q.** COc1cccc(C(=O)N2c3ccccc3[C@@H](N(C(C)=O)c3ccccc3)C[C@H]2C)c1 [Compound A-126, (2R,4S)-cis-N-[1-(3-methoxy-benzoyl)-2-methyl-1,2,3,4-tetrahydro-quinolin-4-yl]-N-phenyl-acetamide] was tested. Which Ki did it give?
**A.** < 60 µM

**Q.** CC(=O)N(c1ccccc1)C1CC(C)N(C(=O)c2sc(-c3ccccc3)nc2C)c2ccccc21 (centres unmarked) [Compound A-156] was tested. Which Ki did it give?
**A.** < 10 µM

**Q.** CC(=O)N(c1ccc(Cl)cc1)[C@H]1C[C@@H](C)N(C(=O)c2cccs2)c2ccccc21 [Compound B-7, (2R,4S)-cis-N-(4-chloro-phenyl)-N-[2-methyl-1-(thiophene-2-carbonyl)-1,2,3,4-tetrahydro-quinolin-4-yl]-acetamide] was tested. Which Ki did it give?
**A.** < 10 µM

**Q.** For COc1cccc(C(=O)N2c3ccccc3[C@@H](N(C(C)=O)c3ccc(Cl)cc3)C[C@H]2C)c1 [Compound B-9, (2R,4S)-cis-N-(4-chloro-phenyl)-N-[1-(3-methoxy-benzoyl)-2-methyl-1,2,3,4-tetrahydro-quinolin-4-yl]-acetamide], which Ki is on record?
**A.** < 10 µM

**Q.** How did the Ki turn out when Cc1ccc(C(=O)N2c3ccccc3[C@@H](N(C(=O)C(C)C)c3ccc(Cl)cc3)C[C@H]2C)s1 [Compound B-11, (2R,4S)-cis-N-(4-Chloro-phenyl)-N-[2-methyl-1-(5-methyl-thiophene-2-carbonyl)-1,2,3,4-tetrahydro-quinolin-4-yl]-isobutyramide] was run?
**A.** < 10 µM

**Q.** CCC(=O)N(c1ccc(Cl)cc1)[C@H]1C[C@@H](C)N(C(=O)c2ccc(OC)cc2)c2ccccc21 [Compound B-18, (2R,4S)-cis-N-(4-chloro-phenyl)-N-[1-(4-methoxy-benzoyl)-2-methyl-1,2,3,4-tetrahydro-quinolin-4-yl]-propionamide] was tested. Which Ki did it give?
**A.** < 10 µM

**Q.** How did the Ki turn out when CC(=O)N(c1ccc(Cl)cc1)[C@H]1C[C@@H](C)N(C(=O)c2ccc(F)cc2)c2ccccc21 [Compound B-26, (2R,4S)-cis-N-(4-chloro-phenyl)-N-[1-(4-fluoro-benzoyl)-2-methyl-1,2,3,4-tetrahydro-quinolin-4-yl]-acetamide] was run?
**A.** < 10 µM

**Q.** Which Ki does the source give for CC(=O)N(c1ccc(Cl)cc1)[C@H]1C[C@@H](C)N(C(=O)c2ccc(C)s2)c2ccccc21 [Compound B-28, (2R,4S)-cis-N-(4-Chloro-phenyl)-N-[2-methyl-1-(5-methyl-thiophene-2-carbonyl)-1,2,3,4-tetrahydro-quinolin-4-yl]-acetamide] here?
**A.** < 10 µM

**Q.** For COc1ccc(C(=O)N2c3ccccc3[C@@H](N(C(C)=O)c3ccc(Cl)cc3)C[C@H]2C)cc1 [Compound B-34, (2R,4S)-cis-N-(4-Chloro-phenyl)-N-[1-(4-methoxy-benzoyl)-2-methyl-1,2,3,4-tetrahydro-quinolin-4-yl]-acetamide], which Ki is on record?
**A.** < 10 µM

**Q.** How did the Ki turn out when COc1ccc(C(=O)N2c3cc(C)ccc3[C@@H](N(C(C)=O)c3ccc(Cl)cc3)C[C@H]2C)cc1 [Compound B-58, (2R,4S)-cis-N-(4-chloro-phenyl)-N-[1-(4-methoxy-benzoyl)-2,7-dimethyl-1,2,3,4-tetrahydro-quinolin-4-yl]-acetamide] was run?
**A.** < 10 µM

**Q.** With CCOCCOc1ccc2c(c1)C(N(C(=O)CC)c1ccc(Cl)cc1)CC(C)N2C(=O)c1ccc(F)cc1 (centres unmarked) [Compound B-68] as the molecule, how does the Ki read?
**A.** < 10 µM

**Q.** How did the Ki turn out when CC(=O)N(c1ccc(Cl)cc1)[C@@H]1C[C@H](C)N(C(=O)c2ccc(/C=C/C(=O)O)cc2)c2ccccc21 [Compound C-33, (2S,4R)-3-(4-{4-[Acetyl-(4-chloro-phenyl)-amino]-2-methyl-3,4-dihydro-2H-quinoline-1-carbonyl}-phenyl)-acrylic acid] was run?
**A.** < 10 µM

**Q.** With COc1ccc(C(=O)N2c3ccccc3[C@H](N(C(C)=O)c3ccc(C(=O)O)cc3)C[C@@H]2C)cc1 [Compound C-37, (2S,4R)-4-{Acetyl-[1-(4-methoxy-benzoyl)-2-methyl-1,2,3,4-tetrahydro-quinolin-4-yl]-amino}-benzoic acid] as the molecule, how does the Ki read?
**A.** < 10 µM

**Q.** With COc1ccc(C(=O)N2c3ccccc3[C@H](N(C(C)=O)c3cccc(CN)c3)C[C@@H]2C)cc1 [Compound C-38, (2S,4R)-N-(3-Aminomethyl-phenyl)-N-[1-(4-methoxy-benzoyl)-2-methyl-1,2,3,4-tetrahydro-quinolin-4-yl]-acetamide] as the molecule, how does the Ki read?
**A.** < 10 µM

**Q.** With COc1ccc(C(=O)N2c3ccccc3[C@H](N(C(C)=O)c3ccc(C(C)(C)C(=O)O)cc3)C[C@@H]2C)cc1 [Compound D-1, (2S,4R)-2-(4-{Acetyl-[1-(4-methoxy-benzoyl)-2-methyl-1,2,3,4-tetrahydro-quinolin-4-yl]-amino}-phenyl)-2-methyl-propionic acid] as the molecule, how does the Ki read?
**A.** < 10 µM

**Q.** With COc1ccc(C(=O)N2c3ccccc3[C@H](N(C(C)=O)c3ccc(C(=O)CCC(=O)O)c(Cl)c3)C[C@@H]2C)cc1 [Compound D-2, (2S,4R)-4-(4-{Acetyl-[1-(4-methoxy-benzoyl)-2-methyl-1,2,3,4-tetrahydro-quinolin-4-yl]-amino}-2-chloro-phenyl)-4-oxo-butyric acid] as the molecule, how does the Ki read?
**A.** < 10 µM

**Q.** For COc1ccc(C(=O)N2c3ccccc3[C@H](N(C(C)=O)c3ccc(CCC(=O)O)cc3)C[C@@H]2C)cc1 [Compound D-6, (2S,4R)-3-(4-{Acetyl-[1-(4-methoxy-benzoyl)-2-methyl-1,2,3,4-tetrahydro-quinolin-4-yl]-amino}-phenyl)-propionic acid], which Ki is on record?
**A.** < 10 µM

**Q.** Which Ki does the source give for COc1ccc(C(=O)N2c3ccccc3[C@H](N(C(C)=O)c3ccc(OCC(=O)O)cc3)C[C@@H]2C)cc1 [Compound D-10, (2S,4R)-(4-{Acetyl-[1-(4-methoxybenzoyl)-2-methyl-1,2,3,4-tetrahydro-quinolin-4-yl]-amino}-phenoxy)-acetic acid] here?
**A.** < 10 µM

**Q.** How did the Ki turn out when COc1cccc(C(=O)N2c3ccccc3C(N(C(C)=O)c3ccccc3)CC2(C)C)c1 (centres unmarked) [Compound F-1, N-[1-(3-Methoxy-benzoyl)-2,2-dimethyl-1,2,3,4-tetrahydro-quinolin-4-yl]-N-phenyl-acetamide] was run?
**A.** < 60 µM

**Q.** For COc1cccc(C(=O)N2CCC(N(C(C)=O)c3ccccc3)c3ccccc32)c1 (centres unmarked) [Compound F-3, N-[1-(3-Methoxy-benzoyl)-1,2,3,4-tetrahydro-quinolin-4-yl]-N-phenyl-acetamide], which Ki is on record?
**A.** < 10 µM

Reference: US7504508B2, “PGD2 receptor antagonists for the treatment of inflammatory diseases” (Millennium Pharmaceuticals, Inc., priority 2002, dated 2009)
